# Test results taken from US20130217595A1, “METHOD FOR THE IDENTIFICATION OF CATECHOL O-METHYLTRANSFERASE MODULATORS” (Hoffman-La Roche Inc., priority 2010, published 2013).
# Biological target: human COMT (Homo sapiens, UniProt P21964)
# Settings: SAM limited (500 nM); Alexa Fluor 488-Nitrocatechol substrate; FIG. 5
# Method: The term “kinetic readout” refers to the difference of the fluorescent signal measured at two certain time points in the linear part of an enzymatic reaction. One measurement is done at the beginning of the enzymatic reaction (start-point) and after an incubation time a second readout is performed (end-point). The final signal is then calculated in rfu/min as (rfu(end-point)—rfu(start-point))/incubation time. (rfu: relative fluorescence units)
# 384-well microtiter plate, Corning black with flat clear bottom, non binding surface, polystyrene (ref. 3655)
# Reagent and Buffer Stock Solutions: • Buffer stock solutions: • M Phosphate buffer pH 7.6 (Na2HPO4 Fluka 71644, NaH2PO4 Merck 6346.0500) stored at 4° C. • 580 mM MgCl2 (Merck 1.0833.0250), stored at RT • 1 M CaCl2 stored at 4° C. • 65 mM DTT (Sigma D-0632), stored at −20° C. • Recombinant human COMT: prepared in house, stored at −80° C. • 4-Nitrocatechol-Alexa Fluor 488: prepared in house, 1.3 mM in DMSO, stored at RT in the dark • S-Adenosyl-methionine: 10 mM in H2O (Sigma-Aldirch A2804), stored at −20° C. […]
# Readout: kinetic measurement on plate: vision TM reader (exc. 475(40) nm, em. 535(45) nm, intensity 7.5%, exposure time 1 s.
# Sequence of human COMT (P21964 whole entry): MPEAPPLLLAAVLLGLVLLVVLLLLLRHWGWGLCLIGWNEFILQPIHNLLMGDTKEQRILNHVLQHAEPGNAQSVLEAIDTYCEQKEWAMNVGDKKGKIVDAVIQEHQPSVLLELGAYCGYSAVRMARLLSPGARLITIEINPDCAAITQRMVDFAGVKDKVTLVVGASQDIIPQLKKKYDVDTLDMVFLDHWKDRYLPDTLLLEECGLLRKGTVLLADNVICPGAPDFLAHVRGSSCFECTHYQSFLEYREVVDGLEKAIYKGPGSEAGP
compound,measurement,value
NCCc1ccc(O)c(O)c1 [dopamine],kinetic fluorescence readout plateau as a function of compound concentration,Decreasing plateaus were reached with increasing dopamine concentrations
